In ChEMBL document CHEMBL1154672, “Four new cytotoxic oligosaccharidic derivatives of 12-oleanene from Lysimachia heterogenea Klatt” (Bioorg Med Chem Lett, 2009):
pIC50: −log10 of the molar value.

What was measured:
Format in all cases: functional, cell-based
A549 [1] = assay: Cytotoxicity against human A549 cells after 9 hrs; conditions: A549, 9 h
A549 [2] = assay: Cytotoxicity against human A549 cells; conditions: TDE = time-dependent effect
A549 [3] = assay: Cytotoxicity against human A549 cells after 72 hrs; conditions: A549, 72 h
A549 [4] = assay: Cytotoxicity against human A549 cells after 2 hrs; conditions: A549, 2 h

## CC1(C)CC[C@]2(CO)[C@H](O)C[C@]3(C)C(=CC[C@@H]4[C@@]5(C)CC[C@H](O[C@@H]6OC[C@H](O)[C@H](O)[C@H]6O[C@@H]6O[C@H](CO)[C@@H](O)[C@H](O)[C@H]6O)[C@@](C)(CO)[C@@H]5CC[C@]43C)[C@H]2C1 [HETEROGENOSIDE A]
A549 [1]
  pIC50: < 4.00
A549 [2]
  Activity: tde
A549 [3]
  pIC50: 4.61

## CC1(C)CC[C@]2(CO)[C@H](O)C[C@]3(C)C(=CC[C@@H]4[C@@]5(C)CC[C@H](O[C@@H]6OC[C@H](O)[C@H](O)[C@H]6O[C@@H]6O[C@H](CO)[C@@H](O)[C@H](O)[C@H]6O[C@@H]6OC[C@@H](O)[C@H](O)[C@H]6O)[C@@](C)(CO)[C@@H]5CC[C@]43C)[C@H]2C1 [HETERGENOSIDE B]
A549 [4]
  pIC50: 4.58
A549 [3]
  pIC50: 4.72
